The target in the experiment is HDM2 (Homo sapiens (Human), UniProt Q00987). Put plainly: HDM2 FRET assay (inhibition of p53 peptide binding to HDM2). The settings on record: read-out: FRET IC50.
Setting [1] is: 0.5 nM HDM2 (residues 17-125), 3 nM FITC peptide, 2 h at room temperature, values rounded to the nearest integer.

The values that follow come from patent US8846657B2, “Substituted imidazopyridines as HDM2 inhibitors” (Merck Sharp & Dohme Corp., priority 2012, dated 2014).

As a reminder, the IC50 is the concentration that gives 50% inhibition.

Where two headings read alike, the source gives them in different places. Where only a bound is given, the exact number is not on record here.

Chain of HDM2 (Q00987 17-125): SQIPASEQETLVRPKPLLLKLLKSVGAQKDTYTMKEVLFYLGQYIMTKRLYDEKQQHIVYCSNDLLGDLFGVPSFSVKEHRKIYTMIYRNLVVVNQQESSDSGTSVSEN
From the text: Methods: An HDM2 FRET assay was developed to assess the compounds' inhibitory activity towards binding of p53 protein. […] Ratio of em520/em495 was used to calculate % inhibition and to obtain IC50 with 4-parameter logistic equation.
Concentration of compound was plotted against em520/Cem495 ratio signal. To generate IC50 values, the dose-response curves were fitted to a standard sigmoidal curve and IC50 values were derived by nonlinear regression analysis.

Consider `C[C@H]1CC[C@H](Cn2c(N3CCOC[C@H]3c3ccccc3)nc3cc(-c4noc(=O)[nH]4)nc(-c4cncc(Cl)c4)c32)CC1` [Example 2.1, 3-{4-(5-chloropyridin-3-yl)-3-[(trans-4-methylcyclohexyl)methyl]-2-[(3R)-3-phenylmorpholin-4-yl]-3H-imidazo[4,5-c]pyridin-6-yl}-1,2,4-oxadiazol-5(4H)-one], for which the IC50 under setting [1] is less than 1 nM.

As to `C[C@H]1CC[C@H](Cn2c(N3CCC[C@H]3c3nccs3)nc3cc(-c4noc(=O)[nH]4)nc(-c4cncc(Cl)c4)c32)CC1` [Example 3.81, 3-{4-(5-chloropyridin-3-yl)-3-[(trans-4-methylcyclohex-yl)methyl]-2-[(2S)-2-(1,3-thiazol-2-yl)pyrrolidin-1-yl]-3H-imidazo[4,5-c]pyridin-6-yl}-1,2,4-oxadiazol-5(4H)-one], the concentration for half-maximal inhibition (IC50) under setting [1] is less than 1 nM.

With `CO[C@@H]1C[C@@H](C(C)C)N(c2nc3cc(-c4noc(=O)[nH]4)nc(-c4cncc(Cl)c4)c3n2C[C@H]2CC[C@H](C)CC2)C1` [Example 3.90, 3-{4-(5-chloropyridin-3-yl)-2-[(2S,4R)-4-methoxy-2-(propan-2-yl)pyrrolidin-1-yl]-3-[(trans-4-methylcyclohexyl)methyl]-3H-imidazo[4,5-d]pyridin-6-yl}-1,2,4-oxadiazol-5(4H)-one], the IC50 under setting [1] was less than 1 nM.

As to `COCCO[C@@H]1C[C@@H](C(C)C)N(c2nc3cc(-c4noc(=O)[nH]4)nc(-c4cncc(Cl)c4)c3n2C[C@H]2CC[C@H](C)CC2)C1` [Example 3.144, 3-{4-(5-chloropyridin-3-yl)-2-[(2S,4R)-4-(2-methoxyethoxy)-2-(1-methylethyl)-pyrrolidin-1-yl]-3-[(trans-4-methylcyclohex-yl)methyl]-3H-imidazo[4,5-c]pyridin-6-yl}-1,2,4-oxadiazol-5(4H)-one], the half-maximal inhibitory concentration (IC50) under setting [1] is less than 1 nM.

On to `C[C@H]1CC[C@H](Cn2c(N3CCC[C@H]3C(F)(F)F)nc3cc(-c4nnn[nH]4)nc(-c4cncc(Cl)c4)c32)CC1` [Example 14.1, 4-(5-chloropyridin-3-yl)-3-[(trans-4-methylcyclohexyl)methyl]-6-(1H-tetrazol-5-yl)-2-[(2S)-2-(trifluoromethyl)pyrrolidin-1-yl]-3H-imidazo[4,5-c]pyridine], for which the IC50 is less than 1 nM.

For `C[C@H]1CC[C@H](Cn2c(N3CCO[C@@H]4CCC[C@H]43)nc3cc(-c4nnn[nH]4)nc(-c4cncc(Cl)c4)c32)CC1` [Example 14.4, 4-(5-chloropyridin-3-yl)-2-[(4aR,7aR)-hexahydrocyclopenta[b][1,4]oxazin-4(4aH)-yl]-3-[(trans-4-methylcyclohexyl)methyl]-6-(1H-tetrazol-5-yl)-3H-imidazo[4,5-c]pyridine], the IC50 is less than 1 nM.
